{"source": "patent US12486244B2", "about": "“Preparation of semicarbazide-sensitive amine oxidase inhibitor and use thereof” (ENNOVABIO (ZHEJIANG) PHARMACEUTICALS CO., LTD., priority 2020, dated 2025)", "format_in_all_cases": "biochemical", "key": {"[1]": {"target": "T1, Recombinant human SSAO protein (Homo sapiens, UniProt Q16853)", "T1 construct": "Eli Lilly (provided, not purchased)", "T1 sequence (Q16853 1-763)": "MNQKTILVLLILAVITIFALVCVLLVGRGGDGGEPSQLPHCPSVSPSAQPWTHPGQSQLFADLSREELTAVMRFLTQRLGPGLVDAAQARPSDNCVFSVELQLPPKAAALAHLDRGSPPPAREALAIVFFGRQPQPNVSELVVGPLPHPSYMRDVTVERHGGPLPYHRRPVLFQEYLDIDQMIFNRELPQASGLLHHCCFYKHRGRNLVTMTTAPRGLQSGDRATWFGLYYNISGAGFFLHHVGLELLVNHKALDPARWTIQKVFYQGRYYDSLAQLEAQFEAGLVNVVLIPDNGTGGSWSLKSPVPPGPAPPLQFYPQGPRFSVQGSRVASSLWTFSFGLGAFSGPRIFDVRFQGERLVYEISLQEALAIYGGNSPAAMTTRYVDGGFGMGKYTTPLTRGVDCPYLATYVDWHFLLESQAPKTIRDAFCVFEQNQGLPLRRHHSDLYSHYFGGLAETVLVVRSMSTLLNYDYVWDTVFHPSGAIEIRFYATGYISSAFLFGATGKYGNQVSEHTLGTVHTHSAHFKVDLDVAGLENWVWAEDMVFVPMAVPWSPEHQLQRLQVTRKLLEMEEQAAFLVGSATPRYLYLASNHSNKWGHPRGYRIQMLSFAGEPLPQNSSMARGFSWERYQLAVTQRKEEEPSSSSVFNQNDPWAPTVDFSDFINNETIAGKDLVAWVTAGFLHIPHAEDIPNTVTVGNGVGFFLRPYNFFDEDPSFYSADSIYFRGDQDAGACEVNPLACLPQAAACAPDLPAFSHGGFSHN", "test": "In vitro inhibitory activity on SSAO/VAP-1 (MAO-Glo assay)", "conditions": "compound 1 μM to 0.05 nM", "experimental": "(§1) This assay was used to evaluate the in vitro inhibitory activity of the compounds against SSAO/VAP-1 of different species. Recombinant human SSAO protein, mouse SSAO protein or rat SSAO protein (provided by Eli Lilly) were used. The enzyme activity detection kit, MAO-Glo Assay kit (V1402) was purchased from Promega. Enzyme reaction buffer (50 mM HEPES, 120 mM NaCl, 5 mM KCl, 2 mM CaCl2, 1.4 mM MgCl2, 0.001% Tween-20, pH 7.4) was prepared. The test compounds were dissolved in DMSO and serially diluted by 3-fold. The final concentration of test compound in a 10 μL reaction system was 1 μM to 0.05 nM when SSAO activity was detected. The content of DMSO in the detection reaction system was 1%. After the DMSO solution of test compounds was diluted in the enzyme reaction buffer at a volume ratio of 1:25, 2.5 μL of the solution was added to each well of detection plate with two replicates for each concentration. 5 μL of SSAO protein diluted in the enzyme reaction buffer was added to each well, the final concentration of which was 10 nM to 80 nM in 10 μL reaction system. […] The reaction solution was incubated for 20 minutes at room temperature, and the plate was read with Synergy Neo 2 for detection. […]\n(§2) Signalpositive was signal of positive control wells without test compounds added. […] IC50 value was calculated by using 4 parameters curve fitting."}, "[2]": {"target": "T2, Recombinant human AOC1/DAO protein (Homo sapiens, UniProt P19801)", "T2 construct": "purchased R&D systems 8298-AO", "T2 sequence (P19801 20-751)": "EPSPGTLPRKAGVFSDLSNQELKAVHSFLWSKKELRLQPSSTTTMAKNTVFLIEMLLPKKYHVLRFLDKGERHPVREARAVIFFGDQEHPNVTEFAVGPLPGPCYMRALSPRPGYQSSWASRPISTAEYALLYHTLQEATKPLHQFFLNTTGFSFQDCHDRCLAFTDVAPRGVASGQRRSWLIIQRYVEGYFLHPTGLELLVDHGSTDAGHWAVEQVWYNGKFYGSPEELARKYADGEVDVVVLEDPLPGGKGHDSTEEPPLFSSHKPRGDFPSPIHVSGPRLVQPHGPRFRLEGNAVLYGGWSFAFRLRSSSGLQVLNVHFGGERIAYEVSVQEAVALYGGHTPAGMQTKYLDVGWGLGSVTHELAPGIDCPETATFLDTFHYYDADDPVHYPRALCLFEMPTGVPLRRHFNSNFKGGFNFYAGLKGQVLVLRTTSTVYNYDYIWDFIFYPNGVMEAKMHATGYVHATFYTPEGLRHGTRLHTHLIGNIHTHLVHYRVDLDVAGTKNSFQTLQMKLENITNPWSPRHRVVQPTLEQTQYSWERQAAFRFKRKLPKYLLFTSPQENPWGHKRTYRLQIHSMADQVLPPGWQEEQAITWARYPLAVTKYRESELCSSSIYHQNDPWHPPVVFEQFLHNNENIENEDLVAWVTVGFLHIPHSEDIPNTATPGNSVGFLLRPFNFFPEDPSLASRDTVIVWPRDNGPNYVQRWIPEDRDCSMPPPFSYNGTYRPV", "test": "Inhibitory activity on AOC1 (Amplex UltraRed/HRP, putrescine substrate)", "conditions": "compound 100 μM to 5 nM", "experimental": "Recombinant human AOC1/DAO protein was purchased from R&D systems (Cat: 8298-AO). Amplex UltraRed was purchased from Thermo scientific (Cat: A36006). HRP (Cat: P8250) and Putrescine (Cat: V900377) were purchased from Sigma. Enzyme reaction buffer (50 mM HEPES, 120 mM NaCl, 5 mM KCl, 2 mM CaCl2, 1.4 mM MgCl2, 0.001% Tween-20, pH7.4) was prepared. Test compound was dissolved in DMSO and serially diluted by 3-fold. The final concentration of test compound in 10 μL reaction system was 100 μM to 5 nM when AOC1 activity was detected. The content of DMSO in detection reaction system was 1%. After the DMSO solution of test compound was diluted in the enzyme reaction buffer at a volume ratio of 1:25, 10 μL of mixture was added to each well of detection plate. 4× substrate mixture (containing 400 μM Putrescine, 4U/mL HRP, 4 μM Amplex UltraRed) was prepared in the enzyme reaction buffer, 10 μL of which was added to each well. 20 μL of AOC1 protein diluted in enzyme reaction buffer was added to each well and the final concentration was 0.4 nM in 40 μL reaction system. Synergy Neo 2 was used to read the plate for detection. […] The enzyme activity was calculated based on the increased signal of each well from the 10th minute to the 30th minute. […]\nas §2"}, "[3]": {"target": "T3, Recombinant human AOC2 protein (Homo sapiens, UniProt O75106)", "T3 construct": "Eli Lilly (provided, not purchased)", "T3 sequence (O75106 1-756)": "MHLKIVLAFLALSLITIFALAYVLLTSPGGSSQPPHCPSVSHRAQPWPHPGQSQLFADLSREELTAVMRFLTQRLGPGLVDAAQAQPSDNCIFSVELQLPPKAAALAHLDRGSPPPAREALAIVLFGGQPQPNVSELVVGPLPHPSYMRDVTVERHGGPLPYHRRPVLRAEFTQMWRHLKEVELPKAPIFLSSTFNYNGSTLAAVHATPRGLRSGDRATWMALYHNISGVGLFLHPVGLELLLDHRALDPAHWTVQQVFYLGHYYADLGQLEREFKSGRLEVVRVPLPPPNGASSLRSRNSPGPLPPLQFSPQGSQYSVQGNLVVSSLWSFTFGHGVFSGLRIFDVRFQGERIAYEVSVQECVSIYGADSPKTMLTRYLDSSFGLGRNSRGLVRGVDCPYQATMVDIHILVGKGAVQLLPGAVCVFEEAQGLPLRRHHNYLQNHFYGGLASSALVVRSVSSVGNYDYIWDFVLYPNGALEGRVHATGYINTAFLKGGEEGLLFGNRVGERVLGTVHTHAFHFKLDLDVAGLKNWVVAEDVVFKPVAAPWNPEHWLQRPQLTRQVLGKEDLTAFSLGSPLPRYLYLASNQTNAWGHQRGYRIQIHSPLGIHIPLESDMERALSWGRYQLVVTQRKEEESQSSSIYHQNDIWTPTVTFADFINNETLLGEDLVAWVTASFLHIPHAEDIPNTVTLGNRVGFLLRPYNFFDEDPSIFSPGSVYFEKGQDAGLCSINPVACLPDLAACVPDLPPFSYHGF", "test": "Inhibitory activity on AOC2 (MAO-Glo assay)", "conditions": "compound 100 μM to 5 nM", "experimental": "as §1, with “1%.” for “1%. After the DMSO solution of test compounds was diluted in the enzyme reaction buffer at a volume ratio of 1:25, 2.5 μL of the solution was added to each well of detection plate with two replicates for each concentration. 5 μL of SSAO protein diluted in the enzyme reaction buffer was added to each well, the final concentration of which was 10 nM to 80 nM in 10 μL reaction system.”\nas §2\nRecombinant human AOC2 protein (provided by Eli Lilly). […] The final concentration of test compound in 10 μL reaction system was 100 μM to 5 nM when AOC2 activity was detected, while other reaction conditions were the same as those in Biological Test Example 1. […]"}, "Recombinant human MAO-A": {"target": "T4, Recombinant human MAO-A (Homo sapiens, UniProt P21397)", "T4 construct": "purchased Sigma M7316", "T4 sequence (P21397 1-527)": "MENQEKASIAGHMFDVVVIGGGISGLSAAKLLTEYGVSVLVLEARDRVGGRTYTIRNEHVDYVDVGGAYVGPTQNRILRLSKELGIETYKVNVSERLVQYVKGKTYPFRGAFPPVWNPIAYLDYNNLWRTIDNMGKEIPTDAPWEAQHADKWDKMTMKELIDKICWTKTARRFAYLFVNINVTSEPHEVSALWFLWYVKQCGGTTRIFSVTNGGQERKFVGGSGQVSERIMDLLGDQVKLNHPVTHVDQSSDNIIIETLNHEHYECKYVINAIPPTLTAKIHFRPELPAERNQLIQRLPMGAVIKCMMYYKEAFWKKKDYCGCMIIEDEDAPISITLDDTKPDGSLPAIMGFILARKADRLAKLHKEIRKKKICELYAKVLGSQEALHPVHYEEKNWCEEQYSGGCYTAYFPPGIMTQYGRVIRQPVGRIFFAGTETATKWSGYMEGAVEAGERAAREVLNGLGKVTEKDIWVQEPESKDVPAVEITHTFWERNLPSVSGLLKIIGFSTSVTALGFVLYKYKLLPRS", "test": "Inhibitory activity on MAO-A (MAO-Glo assay)", "conditions": "recombinant human MAO-A 70 nM; compound 100 μM to 5 nM", "experimental": "as §1, with “concentration.” for “concentration. 5 μL of SSAO protein diluted in the enzyme reaction buffer was added to each well, the final concentration of which was 10 nM to 80 nM in 10 μL reaction system.”\nas §2\n(§3) Recombinant human MAO-A and MAO-B protein was purchased from Sigma (M7316, M7441). […] The final concentration of test compound in 10 μL reaction system was 100 μM to 5 nM when MAO-A and MAO-B activity were detected. […]"}, "Recombinant human MAO-B": {"target": "T5, Recombinant human MAO-B (Homo sapiens, UniProt P27338)", "T5 construct": "purchased Sigma M7441", "T5 sequence (P27338 1-520)": "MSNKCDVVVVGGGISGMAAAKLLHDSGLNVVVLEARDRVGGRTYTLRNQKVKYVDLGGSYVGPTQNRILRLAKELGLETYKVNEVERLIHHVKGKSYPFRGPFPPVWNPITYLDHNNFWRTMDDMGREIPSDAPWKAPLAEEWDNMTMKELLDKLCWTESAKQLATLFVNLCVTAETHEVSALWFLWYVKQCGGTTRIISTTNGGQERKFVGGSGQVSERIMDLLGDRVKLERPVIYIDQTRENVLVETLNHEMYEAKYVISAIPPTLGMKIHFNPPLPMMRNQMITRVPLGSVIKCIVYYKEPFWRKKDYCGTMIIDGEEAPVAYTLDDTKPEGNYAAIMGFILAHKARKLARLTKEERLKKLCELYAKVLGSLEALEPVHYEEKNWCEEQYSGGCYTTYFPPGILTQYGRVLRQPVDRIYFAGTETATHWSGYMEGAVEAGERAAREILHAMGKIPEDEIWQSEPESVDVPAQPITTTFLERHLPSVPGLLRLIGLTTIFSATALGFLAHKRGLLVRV", "test": "Inhibitory activity on MAO-B (MAO-Glo assay)", "conditions": "recombinant human MAO-B 300 nM; compound 100 μM to 5 nM", "experimental": "as §1, with “concentration.” for “concentration. 5 μL of SSAO protein diluted in the enzyme reaction buffer was added to each well, the final concentration of which was 10 nM to 80 nM in 10 μL reaction system.”\nas §2, §3"}}, "data": [{"smiles": "CC1(O)CCN(c2ncc(OC/C(=C/F)CN)cn2)CC1", "note": "[Example 1, (E)-1-(5-((2-(Aminomethyl)-3-fluoroallyl)oxy)pyrimidin-2-yl)-4-methylpiperidin-4-ol]", "values": [{"measurement": "IC50", "setting": "[1]", "value": "< 0.01", "unit": "µM"}, {"measurement": "IC50", "setting": "[2]", "value": "> 10", "unit": "µM"}, {"measurement": "IC50", "setting": "[3]", "value": "> 1", "unit": "µM"}, {"measurement": "IC50", "setting": "Recombinant human MAO-A", "value": "10 to 100", "unit": "µM"}, {"measurement": "IC50", "setting": "Recombinant human MAO-B", "value": "> 20", "unit": "µM"}]}, {"smiles": "COCC1(O)CCN(c2ncc(OC/C(=C/F)CN)cn2)CC1", "note": "[Example 2, (E)-1-(5-((2-(aminomethyl)-3-fluoroallyl)oxy)pyrimidin-2-yl)-4-(methoxymethyl)piperidin-4-ol]", "values": [{"measurement": "IC50", "setting": "[1]", "value": "< 0.01", "unit": "µM"}, {"measurement": "IC50", "setting": "[2]", "value": "0.1 to 10", "unit": "µM"}, {"measurement": "IC50", "setting": "[3]", "value": "> 1", "unit": "µM"}, {"measurement": "IC50", "setting": "Recombinant human MAO-A", "value": "> 100", "unit": "µM"}, {"measurement": "IC50", "setting": "Recombinant human MAO-B", "value": "> 20", "unit": "µM"}]}]}
